Assay results published in patent US7285554B2, “Pyrazole derivative” (Astellas Pharma Inc., priority 1997, dated 2007).

System: IL-2 production from Jurkat cells
Experiment: cells
Conditions: Homo sapiens, read-out: IL-2 production inhibition IC50 value

Compound	IC50
Cc1ncsc1C(=O)Nc1ccc(-n2nc(C(F)(F)F)cc2C(F)(F)F)cc1 [Example 1, 4-methyl-4′-[3,5-bis(trifluoromethyl)-1H-pyrazol-1-yl]thiazole-5-carboxyanilide]	≤ 1 µM
Cn1nc(C(F)(F)F)cc1-c1ccc(C(=O)Nc2ccccc2Cl)s1 [Example 5, 2′-chloro-5-(1-methyl-3-trifluoromethyl-1H-pyrazol-5-yl)thiophene-2-carboxyanilide]	≤ 1 µM
